Laboratory results reported in PubChem BioAssay (NCI).
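These data come from cells grown in 96-well plates and exposed to compound for 48 hours at five concentrations. GI50: concentration for 50% inhibition of growth. TGI is the concentration that stops growth completely.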

Assays:
Experiment in all cases: DTP human tumour cell line panel, 48 h
DLD-1 colon = system: DLD-1 colon
KM20L2 colon = system: KM20L2 colon
SF-295 CNS = system: SF-295 CNS
UACC-62 melanoma = system: UACC-62 melanoma
M19-MEL melanoma = system: M19-MEL melanoma
SNB-78 CNS = system: SNB-78 CNS
TK-10 renal = system: TK-10 renal
MALME-3M melanoma = system: MALME-3M melanoma
DMS 114 small cell lung = system: DMS 114 small cell lung
HOP-18 NSCLC = system: HOP-18 NSCLC

| SMILES | TGI (DLD-1 colon) [µM] | TGI (KM20L2 colon) [µM] | TGI (SF-295 CNS) [µM] | TGI (UACC-62 melanoma) [µM] | TGI (M19-MEL melanoma) [µM] | TGI (SNB-78 CNS) [µM] | TGI (TK-10 renal) [µM] | TGI (MALME-3M melanoma) [µM] | TGI (DMS 114 small cell lung) [µM] | TGI (HOP-18 NSCLC) [µM] | GI50 (DLD-1 colon) [µM] | GI50 (KM20L2 colon) [µM] | GI50 (SF-295 CNS) [µM] | GI50 (UACC-62 melanoma) [µM] | GI50 (M19-MEL melanoma) [µM] | GI50 (HOP-18 NSCLC) [µM] | GI50 (SNB-78 CNS) [µM] | GI50 (MALME-3M melanoma) [µM] |
| --- | --- | --- | --- | --- | --- | --- | --- | --- | --- | --- | --- | --- | --- | --- | --- | --- | --- | --- |
| CC1OC=CC(=O)C1O (configuration not stated) | > 100 | > 100 | > 100 | > 100 | > 100 | > 100 | > 100 | > 100 | – | – | – | – | – | – | – | – | – | – |
| c1ccc(COc2cccc3cccnc23)cc1 | > 100 | > 100 | > 100 | > 100 | > 100 | – | > 100 | > 100 | > 100 | > 100 | – | – | – | – | – | – | – | – |
| CN(CCN(C)C(=O)CCn1ccc(=O)[nH]c1=O)C(=O)CCn1ccc(=O)[nH]c1=O | – | > 100 | > 100 | > 100 | > 100 | > 100 | > 100 | > 100 | > 100 | – | – | – | – | – | – | – | – | – |
| C=C1CC(OC)(C(O)C(=O)N[C@H]2OCO[C@H]3C2O[C@H](C[C@H](O)COC)C(C)(C)C3OC)O[C@H](C)[C@@H]1C (some centres not stated) | – | > 0.00772 | > 0.00772 | > 0.00772 | > 0.00772 | > 0.00772 | – | – | > 0.00772 | > 0.00772 | – | – | – | – | – | – | – | – |
| c1ccc(-c2[nH]c(-c3ccccc3)c(-c3cnccn3)c2-c2cnccn2)cc1 | > 100 | > 100 | > 100 | > 100 | > 100 | > 100 | > 100 | > 100 | > 100 | > 100 | – | – | – | – | – | – | – | – |
| NC1CCCCC1N.O=S(=O)([O-])CCCN1CCN(CCO)CC1.O=S(=O)([O-])CCCN1CCN(CCO)CC1.[Pt+4] | > 100 | > 100 | > 100 | 33.7 | 16.2 | > 86.4 | – | 28.3 | – | > 100 | 8.44 | 6.59 | 4.1 | 6.91 | 1.18 | 21.6 | 15.8 | 3.08 |
| CC(=O)[C@H]1CCC2[C@@H]3CC=C4C(O)C(OS(=O)(=O)O)CC[C@]4(C)C3CC[C@@]21C (some centres not stated) | > 100 | > 100 | > 100 | > 100 | > 100 | > 100 | – | > 100 | > 100 | > 100 | – | – | – | – | – | – | – | – |
